pIC50: −log10 of the molar value.
The molecules below were run against T1, MAGL (Homo sapiens, UniProt Q99685) (assay: MAGL inhibition, 2-AG assay (hydrolysis of 2-arachidonoylglycerol, arachidonic acid by mass spectrometry)). Conditions: 2-AG assay (footnote [b]).
T1 sequence (Q99685 1-303): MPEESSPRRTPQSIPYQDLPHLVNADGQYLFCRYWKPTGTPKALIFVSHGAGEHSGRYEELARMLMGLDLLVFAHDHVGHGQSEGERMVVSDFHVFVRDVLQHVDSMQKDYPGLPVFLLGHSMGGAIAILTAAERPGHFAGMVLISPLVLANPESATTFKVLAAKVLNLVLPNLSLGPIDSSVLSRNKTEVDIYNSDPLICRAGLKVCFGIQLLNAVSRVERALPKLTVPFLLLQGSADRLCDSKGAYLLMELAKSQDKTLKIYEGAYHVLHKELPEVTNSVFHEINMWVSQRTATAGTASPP
Type: biochemical
How it was run: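 Human MAGL […] was preincubated 15 min at RT with compound ([…], 3-fold steps) in 50 mM Tris, 1 mM EDTA, 0.01% Tween. 2-AG (8 μM) was then added for 30 min at RT. Arachidonic acid was quantified by RapidFire SPE–triple quadrupole MS in negative ESI as its ratio to a d8-arachidonic acid standard.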

With `CS(=O)(=O)c1cccc(C(c2cccnc2)C2CCN(C(=O)N3CC[C@@H]4OCC(=O)N[C@@H]4C3)CC2)c1` (single isomer, unassigned) [Example 176, (4aR,8aS)-6-[4-[(R or S)-(3-methylsulfonylphenyl)-(3-pyridyl)methyl]piperidine-1-carbonyl]-4,4a,5,7,8,8a-hexahydropyrido[4,3-b][1,4]oxazin-3-one] as the molecule, how does the pIC50 read?
Its pIC50 is 6.77.

How did the pIC50 turn out when `CC(C)(C)OC(=O)NCCOCCOCCC(=O)NCCOc1cccc(C(c2ccccc2)C2CCN(C(=O)N3CC[C@@H]4OCC(=O)N[C@@H]4C3)CC2)c1` (stereo partly drawn) [Example 256, tert-Butyl N-[2-[2-[3-[2-[3-[[1-[(4aR,8aS)-3-oxo-4,4a,5,7,8,8a-hexahydropyrido[4,3-b][1,4]oxazine-6-carbonyl]-4-piperidyl]-phenyl-methyl]phenoxy]ethylamino]-3-oxo-propoxy]ethoxy]ethyl]carbamate] was run?
Its pIC50 is 8.70.

How did the pIC50 turn out when `CC1CN(C(=O)N2CC[C@@H]3OCC(=O)N[C@@H]3C2)CCC1c1ccc(C(C)(F)F)cn1` (single isomer, unassigned) [Example 43, (4aR,8aS)-6-((3R or 3S)-4-(5-(1,1-Difluoroethyl)pyridin-2-yl)-3-methylpiperidine-1-carbonyl)hexahydro-2H-pyrido[4,3-b][1,4]oxazin-3(4H)-one] was run?
Its pIC50 is 6.81.

How did the pIC50 turn out when `CC(C)(C)COc1ccc(C2CN(C(=O)N3CC[C@@H]4OCC(=O)N[C@@H]4C3)C2)cc1` [Example 278, (4aR,8aS)-6-(3-(4-(Neopentyloxy)phenyl)azetidine-1-carbonyl)hexahydro-2H-pyrido[4,3-b][1,4]oxazin-3(4H)-one] was run?
Its pIC50 is 10.00.

With `O=C1CO[C@H]2CCN(C(=O)N3CC(c4ccc(CC(F)(F)F)cc4)C3)C[C@H]2N1` [Example 187, (4aR,8aS)-6-[3-[4-(2,2,2-Trifluoroethyl)phenyl]azetidine-1-carbonyl]-4,4a,5,7,8,8a-hexahydropyrido[4,3-b][1,4]oxazin-3-one] as the molecule, how does the pIC50 read?
The pIC50 was 9.00.

How did the pIC50 turn out when `CC1(F)CN(c2ccc(C3CN(C(=O)N4CC[C@@H]5OCC(=O)N[C@@H]5C4)C3)cc2)C1` [Example 200, (4aR,8aS)-6-[3-[4-(3-Fluoro-3-methyl-azetidin-1-yl)phenyl]azetidine-1-carbonyl]-4,4a,5,7,8,8a-hexahydropyrido[4,3-b][1,4]oxazin-3-one] was run?
Its pIC50 is 7.85.

How did the pIC50 turn out when `CC(C)(C)OC(=O)NCCOc1cccc(C(c2ccccc2)C2CCN(C(=O)N3CC[C@@H]4OCC(=O)N[C@@H]4C3)CC2)c1` (stereo partly drawn) [Example 237, tert-Butyl (2-(3-((1-((4aR,8aS)-3-oxooctahydro-2H-pyrido[4,3-b][1,4]oxazine-6-carbonyl)piperidin-4-yl)(phenyl)methyl)phenoxy)ethyl)carbamate] was run?
The pIC50 was 9.00.

With `O=C1CO[C@H]2CCN(C(=O)N3CC(c4ccc(N5CCC(C(F)(F)F)C5)cc4)C3)C[C@H]2N1` (single isomer, unassigned) [Example 198, (4aR,8aS)-6-(3-(4-((S or R)-3-(Trifluoromethyl)pyrrolidin-1-yl)phenyl)azetidine-1-carbonyl)hexahydro-2H-pyrido[4,3-b][1,4]oxazin-3(4H)-one] as the molecule, how does the pIC50 read?
Its pIC50 is 9.00.

How did the pIC50 turn out when `O=C1CO[C@H]2CCN(C(=O)N3CC(c4ccc(Cl)nc4)C3)C[C@H]2N1` [Example 145, (4aR,8aS)-6-(3-(6-Chloropyridin-3-yl)azetidine-1-carbonyl)hexahydro-2H-pyrido[4,3-b][1,4]oxazin-3(4H)-one] was run?
Its pIC50 is 5.37.

`O=C1CO[C@H]2CCN(C(=O)N3CC(c4ccc(C5COC5)cc4)C3)C[C@H]2N1` [Example 225, (4aR,8aS)-6-[3-[4-(Oxetan-3-yl)phenyl]azetidine-1-carbonyl]-4,4a,5,7,8,8a-hexahydropyrido[4,3-b][1,4]oxazin-3-one] was tested. Which pIC50 did it give?
Its pIC50 is 7.00.

`CCNC(=O)c1cc(C)ccc1-c1ccc(C2CN(C(=O)N3CC[C@@H]4OCC(=O)N[C@@H]4C3)C2)cc1` [Example 260, 2-[4-[1-[(4aR,8aS)-3-Oxo-4,4a,5,7,8,8a-hexahydropyrido[4,3-b][1,4]oxazine-6-carbonyl]azetidin-3-yl]phenyl]-N-ethyl-5-methyl-benzamide] was tested. Which pIC50 did it give?
The pIC50 was 8.52.

With `CC(Oc1ccc(C(F)(F)F)cc1)C1CN(C(=O)N2CC[C@@H]3OCC(=O)N[C@@H]3C2)C1` (single isomer, unassigned) [Example 99, (4aR,8aS)-6-(3-((S or R)-1-(4-(Trifluoromethyl)phenoxy)ethyl)azetidine-1-carbonyl)hexahydro-2H-pyrido[4,3-b][1,4]oxazin-3(4H)-one] as the molecule, how does the pIC50 read?
The pIC50 was 7.57.

With `O=C1CO[C@H]2CCN(C(=O)N3CC(c4ccc(N5CCCC5C(F)(F)F)cc4)C3)C[C@H]2N1` (stereo partly drawn) [Example 162, (4aR,8aS)-6-(3-(4-(2-(Trifluoromethyl)pyrrolidin-1-yl)phenyl)azetidine-1-carbonyl)hexahydro-2H-pyrido[4,3-b][1,4]oxazin-3(4H)-one] as the molecule, how does the pIC50 read?
The pIC50 was 9.52.

`O=C1CO[C@H]2CCN(C(=O)N3CC(c4ccc(OCC(F)(F)F)cc4)C3)C[C@H]2N1` [Example 158, (4aR,8aS)-6-[3-[4-(2,2,2-Trifluoroethoxy)phenyl]azetidine-1-carbonyl]-4,4a,5,7,8,8a-hexahydropyrido[4,3-b][1,4]oxazin-3-one] was tested. Which pIC50 did it give?
The pIC50 was 8.15.

How did the pIC50 turn out when `O=C1CO[C@H]2CCN(C(=O)N3CCC(C(COCC(F)(F)F)c4ccc(F)cc4)CC3)C[C@H]2N1` (stereo partly drawn) [Example 56, (4aR,8aS)-6-(4-(1-(4-Fluorophenyl)-2-(2,2,2-trifluoroethoxy)ethyl)piperidine-1-carbonyl)hexahydro-2H-pyrido[4,3-b][1,4]oxazin-3(4H)-one] was run?
The pIC50 was 7.68.

`O=C1CO[C@H]2CCN(C(=O)N3CCC(C(c4ccc(F)cc4)c4ccc(OCCF)cc4)CC3)C[C@H]2N1` (single isomer, unassigned) [Example 109, (4aR,8aS)-6-(4-((S or R)-(4-(2-Fluoroethoxy)phenyl)(4-fluorophenyl)methyl)piperidine-1-carbonyl)hexahydro-2H-pyrido[4,3-b][1,4]oxazin-3(4H)-one] was tested. Which pIC50 did it give?
The pIC50 was 9.40.

`O=C1CO[C@H]2CCN(C(=O)N3CCN(C(c4ccccc4)C(F)(F)F)CC3)C[C@H]2N1` (stereo partly drawn) [Example 49, (4aR,8aS)-6-(4-(2,2,2-Trifluoro-1-phenylethyl)piperazine-1-carbonyl)hexahydro-2H-pyrido[4,3-b][1,4]oxazin-3(4H)-one] was tested. Which pIC50 did it give?
The pIC50 was 5.96.

How did the pIC50 turn out when `O=C1CO[C@H]2CCN(C(=O)N3CC(c4ccc(N5CC(F)C5)cc4)C3)C[C@H]2N1` [Example 201, (4aR,8aS)-6-(3-(4-(3-Fluoroazetidin-1-yl)phenyl)azetidine-1-carbonyl)hexahydro-2H-pyrido[4,3-b][1,4]oxazin-3(4H)-one] was run?
Its pIC50 is 7.00.

How did the pIC50 turn out when `CS(=O)(=O)c1cccc(C(c2ccncc2)C2CCN(C(=O)N3CC[C@@H]4OCC(=O)N[C@@H]4C3)CC2)c1` (single isomer, unassigned) [Example 177, (4aR,8aS)-6-[4-[(R or S)-(3-methylsulfonylphenyl)-(4-pyridyl)methyl]piperidine-1-carbonyl]-4,4a,5,7,8,8a-hexahydropyrido[4,3-b][1,4]oxazin-3-one] was run?
The pIC50 was 6.37.

`Cc1cc(C2CCN(C(=O)N3CC[C@@H]4OCC(=O)N[C@@H]4C3)CC2)cnc1C(F)(F)F` [Example 101, (4aR,8aS)-6-(4-(5-Methyl-6-(trifluoromethyl)pyridin-3-yl)piperidine-1-carbonyl)hexahydro-2H-pyrido[4,3-b][1,4]oxazin-3(4H)-one] was tested. Which pIC50 did it give?
Its pIC50 is 6.66.

`COc1ccc(C(c2ccc(F)cc2)C2CCN(C(=O)N3CC[C@@H]4OCC(=O)N[C@@H]4C3)CC2)cc1OC` (single isomer, unassigned) [Example 88, (4aR,8aS)-6-(4-((R or S)-(3,4-Dimethoxyphenyl)(4-fluorophenyl)methyl)piperidine-1-carbonyl)hexahydro-2H-pyrido[4,3-b][1,4]oxazin-3(4H)-one] was tested. Which pIC50 did it give?
The pIC50 was 8.66.

`Cc1ccc(C(c2ccc(F)cc2)C2CCN(C(=O)N3CC[C@@H]4OCC(=O)N[C@@H]4C3)CC2)cc1` (single isomer, unassigned) [Example 69, (4aR,8aS)-6-[4-[(S or R)-(4-Fluorophenyl)-(4-methylphenyl)methyl]piperidine-1-carbonyl]-4,4a,5,7,8,8a-hexahydropyrido[4,3-b][1,4]oxazin-3-one] was tested. Which pIC50 did it give?
Its pIC50 is 10.00.

How did the pIC50 turn out when `O=C1CO[C@H]2CCN(C(=O)N3CCC(c4cc(Cl)cc(OCC(F)(F)F)c4)C3)C[C@H]2N1` (stereo partly drawn) [Example 233, (4aR,8aS)-6-(3-(3-Chloro-5-(2,2,2-trifluoroethoxy)phenyl)pyrrolidine-1-carbonyl)hexahydro-2H-pyrido[4,3-b][1,4]oxazin-3(4H)-one] was run?
The pIC50 was 7.21.

`O=C1CO[C@H]2CCN(C(=O)N3CC(c4ccc(N5CCC(C(F)(F)F)C5)cc4)C3)C[C@H]2N1` (single isomer, unassigned) [Example 197, (4aR,8aS)-6-(3-(4-((R or S)-3-(Trifluoromethyl)pyrrolidin-1-yl)phenyl)azetidine-1-carbonyl)hexahydro-2H-pyrido[4,3-b][1,4]oxazin-3(4H)-one] was tested. Which pIC50 did it give?
The pIC50 was 9.30.

With `CS(=O)(=O)c1cc(Cl)ccc1-c1ccc(C2CN(C(=O)N3CC[C@@H]4OCC(=O)N[C@@H]4C3)C2)cc1` [Example 173, (4aR,8aS)-6-(3-(4′-Chloro-2′-(methylsulfonyl)-[1,1′-biphenyl]-4-yl)azetidine-1-carbonyl)hexahydro-2H-pyrido[4,3-b][1,4]oxazin-3(4H)-one] as the molecule, how does the pIC50 read?
The pIC50 was 9.40.

Source: patent US20230117324A1, “OXAZINE MONOACYLGLYCEROL LIPASE (MAGL) INHIBITORS” (Hoffmann-La Roche Inc., priority 2018, published 2023)
